# Measurements as given in paper PMC11729425 (ACS Pharmacology & Translational Science, 2024).
# Key:
# Aged C57BL/6J mice [1] = assay: Rotarod test; type: in vivo, C57BL/6JRj mice; conditions: 1 mg/kg in the food, week 9
# Procedure: The rotarod test assesses muscle strength, coordination, and endurance.[32] Mice were allowed to acclimate in the room for 30 min. […] Each mouse underwent three trials per day for three consecutive days. The latency at which the mouse either reached passive rotation or fell from the rotor was recorded. The results presented here focus on the latency of the best trial conducted on the second day.
# [2] = tested on: immortalized mouse C2C12 myoblasts; assay: Lipid species (ceramides) in C2C12 cells, LC-MS/MS; type: cell-based
# Procedure: (§1) (A) Schematic representation of the de novo sphingolipid synthesis pathway. (B) Chemical structures of myriocin (MYR) and ALT-007. (C) Heatmap analysis comparing the effects of treatments with the indicated concentrations of MYR and ALT-007 on lipid species in C2C12 cells. N = 3 per group. Data are shown as log2 fold change. (D) Body weight curves of mice treated with ALT-007 or vehicle (4 mg/kg/d for 10 days, in the food). (E) Mean food consumption measurement throughout the treatment. (F) Plasma levels of aspartate transaminase (AST), (G) alanine transaminase (ALT) and (H) creatine kinase (CK) after 10 days of treatment with ALT-007 at 4 mg/kg/day. (I) Ceramide levels measured in the gastrocnemius muscle after 10 days of treatment. N = 8 per group. Quantitative data are expressed as median with min to max values. *P < 0.05, **P < 0.01, ***P < 0.001. […]
# (§2) ESI source conditions were used as follows: dry gas temperature, 230 °C; nebulizer, 35 psi and flow rate of 14 L min^–1; sheath gas temperature, 400 °C and flow rate of 12 L min^–1; nozzle voltage, 500 V; and capillary voltage, 4000 V. Dynamic multiple reaction monitoring was used as the acquisition mode with a total cycle time of 500 ms. […] Raw LC–MS/MS data were processed applying Agilent Quantitative Analysis software (version B.07.00, MassHunter Agilent Technologies). […]
# [3] = tested on: ceramide levels in the gastrocnemius muscle; assay: Ceramide levels in gastrocnemius muscle after 10 days of treatment; type: in vivo, mice; conditions: 4 mg/kg/d in the food
# Procedure: as §1, §2
# [4] = tested on: C2C12 myoblasts carrying the APPswe mutation and human myoblasts from aged donors and patients with IBM; design: method as in PMID 37196064; conditions: cited from earlier work
# [5] = design: method as in PMID 29669694; conditions: compared to Myriocin; cited from earlier work
# Aged C57BL/6J mice [6] = assay: Metabolic cages (CLAMS): energy expenditure and activity; type: in vivo, C57BL/6JRj mice; conditions: 1 mg/kg in the food, week 19, CLAMS
# Procedure: Energy expenditure and activity during day and night were measured using the CLAMS monitoring system (Columbus instruments). Mice were housed in metabolic cages for 48 h.
# [7] = design: method as in PMID 29669694; conditions: compared to Myriocin; cited from earlier work; remark: listed apart in the source
structure (smiles),measurement,setting,value
COc1cc(C(=O)N2CC[C@H](NC(=O)c3ccccc3OC(F)(F)F)c3c2cnn3C(C)C)cnc1OC [ALT-007],coordination measured by the rotarod test,Aged C57BL/6J mice [1],improved
same,potency in lowering ceramide species,"[2]; C2C12 myoblasts, compared to Myriocin",superior potency compared to Myriocin
same,ceramide levels in C2C12 myoblasts,[2]; concentration of 10 nM,lower ceramide levels
same,ceramide levels in the gastrocnemius muscle,[3],effectively decreased ceramide levels with a stronger effect on very long-chain (VLC) species
same,protein aggregates,[4],potent effect in reducing protein aggregates
same,aqueous solubility,[5],improved
same,energy expenditure (kCal/h) at night,Aged C57BL/6J mice [6],significant increase
same,global physical activity,Aged C57BL/6J mice [6]; vs aged control,completely restored the decline in global physical activity
same,permeability,[7],improved
